According to patent publication US20020010182A1, “Piperazine derivatives as tachykinin antagonists” (FUJISAWA PHARMACEUTICAL CO., LTD., priority 1995, published 2002):

Columns and labels:
[1] = test system: emesis in the ferret; test: Emesis in the ferret (copper sulfate induced); type: in vivo; details: i.p. dose of 3.2 and/or 10 mg/kg, 30 min before intra-gastric copper sulfate (40 mg/kg/ml); retching and vomiting observed for 30 min
Method: Individually housed adult male ferrets (Marshall Farms, 1.4 to 2.2 kg) were given an i.p. injection of a solution containing a test compound 30 Min later the emetic responses (retching and vomiting) were induced by administration of intra-gastric copper sulfate (40 mg/kg/ml) and observed for the next 30 min. The timing and number of retches and vomits observed were recorded for each animal. An individual animal was tested with at least 10 days between experiments.

[2] = target: T1, h-NK1 receptors (Homo sapiens, UniProt P25103); test: Evaluation of NK1 antagonist transport efficiency to the central nervous system using a h-NK1 receptor binding assay; details: 5 min, brain extract of male SD rats 5 min after i.v. injection of test compound, CHO cell membranes expressing h-NK1, read-out: inhibition rate of 125I-BH-Substance P binding to h-NK1 receptors
T1 construct: expressed in transfected cells; host or cells: CHO cells (permanent expression), crude cell membranes
Method: A. Evaluation of NK1 Antagonist Transport Efficiency to the Cental Nervous System Using a h-NK1 Receptor Binding Assay
(1) Administration of Test Compound and Extraction of the Compound From Brain
Male SD rats were given an i.v. injection of a solution containing a test compound (1 mg/kg). 5 Min later the animals were anesthetized by ether, bled and perfused through the aorta ascendens with 20 ml of saline. The brain was rapidly removed, weighed and homogenized in 4 vol. ice-cold distilled water by using Polytoron (KINEMATICA). To extract the test compound, 500 μl of the homogenate, 100 μl of methanol, 500 μl of 0.1 N NaOH and 4 ml of ethyl acetate were mixed by shaking for 10 min at room temperature. The organic phase (2.5 ml) was recovered by centrifugation at 3,000 rpm for 10 min, dried and dissolved in dimethyl sulfoxide.
(2) h-NK1 Receptor Binding Assay
(a) Crude CHO Cell Membrane Preparation
CHO cells permanently expressing h-NK1 receptors were harvested and homogenized with a Dounce homogenizer at 4° C. in a buffer (0.25 M sucrose, 25 mM Tris-HCl (pH 7.4), 10 mM MgCl2, 1 mM EDTA, 5 μg/ml p-APMSF). The homogenate was centrifuged (500×g, 10 min), and the pellet was resuspended in the same buffer, homogenized, and centrifuged. The two supernatants were combined and centrifuged (100,000×g, 1 hour). The crude cell membranes thus isolated were resuspended in a buffer (25 MM Tris-HCl (pH 7.4), 10 mM MgCl2, 1 mM EDTA, 5 μg/ml p-APMSF) and stored at −80° C. until use.
(b) ^125I-BH-Substance P Binding to the Prepared Membrane
Cell membranes (6 μg/ml) were incubated with ^125I-BH-Substance P (0.1 nM) with or without the extracted compounds in 0.25 ml of a medium (50 mM Tris-HCl (pH 7.4), 5 mM MnCl2, 20 μg/ml chymrostatin, 40 μg/ml bacitracin, 4 μg/ml leupeptin, 5 μg/ml p-APMSF, 200 μg/ml BSA) at 22° C. for 90 min. At the end of the incubation period, the contents were quickly filtered through a Blue Mat 11740 filter (pretreated with 0.1% polyethylenimine for 3 hours prior to use) by using SKATRON Cell Harvester. The filter was then washed with a washing buffer (50 mM Tris-HCl (pH 7.4), 5 mM MnCl2) . The radioactivity was counted by using an auto gamma counter (Packard RIASTAR 5420A). All data presented are specific binding defined as that displaceable by 3 μM unlabeled Substance P.

T1 sequence (P25103 whole entry): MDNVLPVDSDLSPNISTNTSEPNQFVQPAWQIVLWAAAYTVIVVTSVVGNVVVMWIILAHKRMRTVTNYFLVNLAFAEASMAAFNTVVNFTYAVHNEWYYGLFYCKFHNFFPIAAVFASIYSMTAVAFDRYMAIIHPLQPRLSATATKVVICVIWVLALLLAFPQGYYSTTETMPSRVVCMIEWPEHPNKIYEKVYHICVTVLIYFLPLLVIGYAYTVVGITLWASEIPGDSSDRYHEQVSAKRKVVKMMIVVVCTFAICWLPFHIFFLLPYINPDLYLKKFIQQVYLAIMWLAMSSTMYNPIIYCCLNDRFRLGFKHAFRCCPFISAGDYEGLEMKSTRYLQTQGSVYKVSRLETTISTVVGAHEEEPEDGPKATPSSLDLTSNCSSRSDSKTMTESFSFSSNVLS

Row | SMILES | inhibition rate of emesis in the ferret [1] | inhibition at 1 mg/kg [2] | melting point
1 | Cc1ccc(C[C@@H]2CN(CCN3CCOCC3)CCN2C(=O)c2cc(C(F)(F)F)cc(C(F)(F)F)c2)cc1C.Cl.Cl [37-(5), (2R)-4-(2-Morpholinoethyl)-1-[3,5-bis(trifluoromethyl)benzoyl]-2-(3,4-dimethylbenzyl)piperazine dihydrocloride] | 100% | – | –
2 | Cl.Cl.O=C(c1cc(C(F)(F)F)cc(C(F)(F)F)c1)N1CCN(C/C=C/CN2CCOCC2)C[C@H]1Cc1ccc2ccccc2c1 [62-(1), (2R)-1-[3,5-Bis(trifluoromethyl)benzoyl]-2-(2-naphthylmethyl)-4-[(E)-4-morpholino-2-butenyl]piperazine dihydrochloride] | – | > 80% | > 230 °C
3 | Cl.Cl.O=C(c1cc(C(F)(F)F)cc(C(F)(F)F)c1)N1CCN(CC#CCN2CCSCC2)C[C@H]1Cc1ccc(F)cc1 [84-(1), (2R)-1-[3,5-Bis(trifluoromethyl)benzoyl]-2-(4-fluorobenzyl)-4-(4-thiomorpholino-2-butynyl) piperazine dihydrochloride] | – | > 80% | 180 °C (dec.)
4 | CC(=O)c1ccc(CN2CCN(C(=O)c3cc(C(F)(F)F)cc(C(F)(F)F)c3)[C@H](Cc3c[nH]c4ccccc34)C2)cc1.Cl [Example 7, (2R)-4-(4-acetylbenzyl)-1-[3,5-bis(trifluoromethyl)benzoyl]-2-(1H-indol-3-ylmethyl) piperazine hydrochloride] | – | > 80% | 172 °C (dec.)
5 | CC(=O)c1ccc(C(=O)N2CCN(C(=O)c3cc(C(F)(F)F)cc(C(F)(F)F)c3)[C@H](Cc3ccc(Cl)c(Cl)c3)C2)cc1 [Example 12, (2R)-4-(4-acetylbenzoyl)-1-[3,5-bis (trifluoromethyl)benzoyl]-2-(3,4-dichlorobenzyl)piperazine] | 100% | > 80% | –
6 | Cl.Cl.O=C(c1cc(C(F)(F)F)cc(C(F)(F)F)c1)N1CCN(CCCN2CCSCC2)C[C@H]1Cc1c[nH]c2ccccc12 [Example 23, (2R)-1-[3,5-bis(trifluoromethyl)benzoyl]-2-(1H-indol-3-ylmethyl)-4-(3-thiomorpholinopropyl) piperazine dihydrochloride] | 100% | > 80% | –
7 | Cl.Cl.O=C(c1cc(C(F)(F)F)cc(C(F)(F)F)c1)N1CCN(CC#CCN2CCSCC2)C[C@H]1Cc1c[nH]c2ccccc12 [Example 37-(4), (2R)-4-(4-Thiomorpholino-2-butynyl)-1-[3,5-bis (trifluoromethyl)benzoyl]-2-(1H-indol-3-ylmethyl) piperazine dihydrochloride] | – | > 80% | 166 to 170 °C
8 | Cc1ccc(C[C@@H]2CN(CCN3CCSCC3)CCN2C(=O)c2cc(C(F)(F)F)cc(C(F)(F)F)c2)cc1C.Cl.Cl [Example 37-(8), (2R)-4-(2-Thiomorpholinoethyl)-1-[3,5-bis (trifluoromethyl)benzoyl]-2-(3,4-dimethylbenzyl) piperazine dihydrochloride] | – | > 80% | 261.5 °C
9 | Cc1ccc(C[C@@H]2CN(Cc3cnn(C)c3)CCN2C(=O)c2cc(C(F)(F)F)cc(C(F)(F)F)c2)cc1C.Cl [Example 51, (2R)-1-[3,5-bis(trifluoromethyl)benzoyl]-2-(3,4-dimethylbenzyl)-4-[(1-methyl-1H-pyrazol-4-yl)methyl]piperazine hydrochloride] | – | > 80% | 243 to 244 °C
10 | Cc1ccc(C[C@@H]2CN(CCCCN3CCOCC3)CCN2C(=O)c2cc(C(F)(F)F)cc(C(F)(F)F)c2)cc1C.Cl.Cl [Example 54, (2R)-1-[3,5-bis(trifluoromethyl)benzoyl]-2-(3,4-dimethylbenzyl)-4-(4-morpholinobutyl) piperazine dihydrochloride] | – | > 80% | 279 °C
11 | Cc1ccc(C[C@@H]2CN(CC#CCN3CCOCC3C)CCN2C(=O)c2cc(C(F)(F)F)cc(C(F)(F)F)c2)cc1C.Cl.Cl (stereo partly drawn) [Example 58, (2R)-1-[3,5-bis(trifluoromethyl)benzoyl]-2-(3,4-dimethylbenzyl)-4-[4-(3-methylmorpholino)-2-butynyl]piperazine dihydrochloride] | – | > 80% | 150 to 160 °C
12 | Cc1ccc(C[C@@H]2CN(CC#CCN3CCOCC3(C)C)CCN2C(=O)c2cc(C(F)(F)F)cc(C(F)(F)F)c2)cc1C.Cl.Cl [Example 59-(3), (2R)-1-[3,5-Bis(trifluoromethyl)benzoyl]-2-(3,4-dimethylbenzyl)-4-[4-(3,3-dimethylmorpholino)-2-butynyl]piperazine dihydrochloride] | – | > 80% | 180 to 190 °C
13 | COCCN(C)CCN1CCN(C(=O)c2cc(C(F)(F)F)cc(C(F)(F)F)c2)[C@H](Cc2ccc(C)c(C)c2)C1.Cl.Cl [Example 67-(13), (2R)-1-[3,5-Bis(trifluoromethyl)benzoyl]-2-(3,4-dimethylbenzyl)-4-[2-[N-(2-methoxyethyl) -N-methylamino]ethyl]piperazine dihydrochloride] | – | > 80% | 222 °C (dec.)
14 | Cc1ccc(C[C@@H]2CN(C/C=C\CN3CCOCC3)CCN2C(=O)c2cc(C(F)(F)F)cc(C(F)(F)F)c2)cc1C.Cl.Cl [Example 72, (2R)-1-[3,5-Bis(trifluoromethyl)benzoyl]-2-(3,4-dimethylbenzyl)-4-[(Z)-4-morpholino-2-butenyl]piperazine dihydrochloride] | – | > 80% | 243 to 246 °C
15 | Cc1ccc(C[C@@H]2CN(CCCCCN3CCOCC3)CCN2C(=O)c2cc(C(F)(F)F)cc(C(F)(F)F)c2)cc1C.Cl.Cl [Example 74, (2R)-1-[3,5-Bis(trifluoromethyl)benzoyl]-2-(3,4-dimethylbenzyl)-4-(5-morpholinopentyl) piperazine dihydrochloride] | – | > 80% | 235 to 238 °C
16 | Cc1ccc(C[C@@H]2CN(C/C=C/CN3CCOCC3)CCN2C(=O)c2cc(C(F)(F)F)cc(C(F)(F)F)c2)cc1C.Cl.Cl [Example 75, (2R)-1-[3,5-bis(trifluoromethyl)benzoyl]-2-(3,4-dimethylbenzyl)-4-[(E)-4-morpholino-2-butenyl]piperazine dihydrochloride] | – | > 80% | 236 to 242 °C
17 | Cl.Cl.O=C(c1cc(C(F)(F)F)cc(C(F)(F)F)c1)N1CCN(C/C=C/CN2CCOCC2)C[C@H]1Cc1c[nH]c2ccccc12 [Example 76, (2R)-1-[3,5-Bis(trifluoromethyl)benzoyl]-2-(1H-indol-3-ylmethyl)-4-[(E)-4-morpholino-2-butenyl]piperazine dihydrochloride] | – | > 80% | 123 to 128 °C
18 | Cl.Cn1cc(CN2CCN(C(=O)c3cc(C(F)(F)F)cc(C(F)(F)F)c3)[C@H](Cc3c[nH]c4ccccc34)C2)cn1 [Example 77, (2R)-1-[3,5-bis (trifluoromethyl)benzoyl]-2-(1H-indol-3-ylmethyl)-4-[(1-methyl-1H-pyrazol-4-yl)methyl]piperazine hydrochloride] | – | > 80% | 122 to 136 °C
19 | CC1(C)COCCN1CC=CCN1CCN(C(=O)c2cc(C(F)(F)F)cc(C(F)(F)F)c2)[C@H](Cc2c[nH]c3ccccc23)C1.Cl.Cl [Example 86, (2R) -1-[3,5-Bis(trifluoromethyl)benzoyl]-2-(1H-indol-3-ylmethyl)-4-[4-(3,3-dimethylmorpholino)-2-butenyl]piperazine dihydrochloride] | – | > 80% | 210 °C (dec.)
